Data reported in patent US10729759B2, “Fluorocarbon-linked peptide formulation” (priority 2010, dated 2020).
“Also recorded” adds a separate entry of the source. Read-outs that look alike come from different tables or passages of the source.

What was measured:
[1] = type: physicochemical; details: 1.33% mannitol, 0.22 μm PVDF filter; for YIELD % of each FCP following sterile filtration, MIX 1: MIX 1 dispersed in water; for YIELD % of each FCP following sterile filtration, MIX 2: MIX 2 dispersed in water
[2] = type: physicochemical; details: for Percentage acetic acid (% v/v): minimum concentration for acceptable dispersibility and solubility: FCP 2 μmol/ml after acetic acid dispersion; for Visual appearance after dispersion: at the listed acetic acid concentration, FCP 2 μmol/ml
Description: In order to limit the concentration of acetic acid downstream in the formulation process and in the final product, the lowest concentration of acetic acid in water to achieve efficient dispersion and maintain visible solubility was determined for each fluorocarbon-linked peptide. When using mannitol as a cryprotectant, it is important to minimize the acetic acid concentration at the lyophilisation stage in order to achieve a stable and amorphous freeze-dried product. The minimum acetic acid concentration to achieve acceptable dispersibility and solubility of the individual fluorocarbon-linked peptides was determined. The final concentration of fluorocarbon-linked peptide after initial acetic acid dispersion was 2 μmol/ml and after dilution with mannitol, 0.250 μmol/ml.

[3] = type: physicochemical; details: for Further dilution in Mannitol:Water Solubility: FCP 0.167 mM, 1.33% (w/v) mannitol, cloudiness / particulates; for Dispersion in Water Solubility: FCP 1.333 mM in water, vortexed and sonicated, cloudiness (Clear/Cloudy−/Cloudy/Cloudy+) / particulates
Description: The solubility of each FCP in water was assessed. Each FCP was dispersed in 300 μl of water to a final concentration of 1.333 mM and vortexed and sonicated. The typical dispersion conditions were four sequences of three minutes bath sonication interspersed by 30 seconds vortexing. After inspection, the resulting solution was diluted with a mannitol solution (a candidate lyophilisation medium, final concentration of peptide 0.167 mM, 1.33% (w/v) mannitol). Solubility was assessed by visual observation of the cloudiness of the resulting dispersion (scaled: Clear/Cloudy−/Cloudy/Cloudy+) and presence of particulates. […]

[4] = 10 mg net/ml in 10% or 80% acetic acid

SMILES | YIELD % of each FCP following sterile filtration, MIX 1 [1] [%] | Ease of solubility, Cycle 1 Vortexing (10 mg net/ml in 10% (FCP1, 2, 4, 5) or 80% (FCP9, 8) acetic acid) | Ease of solubility, Cycle 1 Sonication [4] | Ease of solubility, Cycle 2 Sonication [4] | Ease of solubility, Cycle 2 Vortexing [4] | Ease of solubility, Cycle 3 Sonication [4] | Ease of solubility, Cycle 3 Vortexing [4] | Visual appearance after dispersion (10 mg net/ml in AcOH 10% or 80%) | Percentage acetic acid (% v/v): minimum concentration for acceptable dispersibility and solubility [2] [% v/v] | Visual appearance after dispersion [2] | Further dilution in Mannitol:Water Solubility [3] | Dispersion in Water Solubility [3] | YIELD % of each FCP following sterile filtration, MIX 2 [1] [%] | Physical stability of formulation at less than 80% (v/v) acetic acid ([2]; gel or soluble particulates formed over time)
CC[C@H](C)[C@H](NC(=O)[C@H](C)NC(=O)[C@H](CCSC)NC(=O)[C@H](Cc1c[nH]cn1)NC(=O)[C@@H](N)CCCCNC(=O)CCC(F)(F)C(F)(F)C(F)(F)C(F)(F)C(F)(F)C(F)(F)C(F)(F)C(F)(F)F)C(=O)N[C@H](C(=O)N[C@@H](CCCCN)C(=O)N[C@@H](CCCCN)C(=O)N[C@@H](Cc1ccc(O)cc1)C(=O)N[C@H](C(=O)N[C@@H](CO)C(=O)NCC(=O)N[C@@H](CCCNC(=N)N)C(=O)N[C@@H](CCC(N)=O)C(=O)N[C@@H](CCC(=O)O)C(=O)N[C@@H](CCCCN)C(=O)N[C@@H](CC(N)=O)C(=O)N1CCC[C@H]1C(=O)N[C@@H](CO)C(=O)N[C@@H](CC(C)C)C(=O)N[C@@H](CCCNC(=N)N)C(=O)N[C@@H](CCSC)C(=O)N[C@@H](CCCCN)C(=O)N[C@@H](Cc1c[nH]c2ccccc12)C(=O)N[C@@H](CCSC)C(=O)N[C@@H](CCSC)C(=O)N[C@@H](C)C(=O)N[C@@H](CCSC)C(=O)N[C@@H](CCCCN)C(=O)N[C@@H](Cc1ccc(O)cc1)C(=O)N1CCC[C@H]1C(=O)N[C@H](C(=O)N[C@H](C(=O)N[C@@H](C)C(=O)N[C@@H](CC(=O)O)C(=O)N[C@@H](CCCCN)C(N)=O)[C@@H](C)O)[C@@H](C)CC)[C@@H](C)O)[C@@H](C)CC [FCP1] | 89.9 | Clear | Clear | Clear | Clear | Clear | Clear | Clear | 10 | Clear | partially soluble; also recorded: Clear/Particulates | Cloudy/Particulates | – | –
CC[C@H](C)[C@H](NC(=O)[C@@H]1CCCN1C(=O)[C@H](C)NC(=O)[C@@H](N)CCCCNC(=O)CCC(F)(F)C(F)(F)C(F)(F)C(F)(F)C(F)(F)C(F)(F)C(F)(F)C(F)(F)F)C(=O)N[C@@H](CCSC)C(=O)N[C@@H](Cc1ccccc1)C(=O)N[C@@H](CO)C(=O)N[C@@H](CC(N)=O)C(=O)N[C@@H](CCCCN)C(=O)N[C@@H](CCSC)C(=O)N[C@@H](C)C(=O)N[C@@H](CCCNC(=N)N)C(=O)N[C@@H](CC(C)C)C(=O)NCC(=O)N[C@@H](CCCCN)C(=O)NCC(=O)N[C@@H](Cc1ccc(O)cc1)C(=O)N[C@@H](CCSC)C(=O)N[C@@H](Cc1ccccc1)C(=O)N[C@@H](CCC(=O)O)C(=O)N[C@@H](CO)C(=O)N[C@@H](CCCCN)C(=O)N[C@@H](CO)C(=O)N[C@@H](CCSC)C(=O)N[C@@H](CCCCN)C(=O)N[C@@H](CC(C)C)C(=O)N[C@@H](CCCNC(=N)N)C(=O)N[C@H](C(=O)N[C@@H](CCC(N)=O)C(=O)N[C@H](C(=O)N1CCC[C@H]1C(=O)N[C@@H](C)C(=O)N[C@@H](CCC(=O)O)C(=O)N[C@@H](CCSC)C(=O)N[C@@H](CC(C)C)C(=O)N[C@@H](C)C(N)=O)[C@@H](C)CC)[C@@H](C)O [FCP3] | 28.6 | – | – | – | – | – | – | – | – | – | partially soluble; also recorded: Clear/Particulates | Cloudy−/Particulates | – | –
CC[C@H](C)[C@H](NC(=O)[C@H](CO)NC(=O)[C@@H](NC(=O)CNC(=O)[C@H](CC(C)C)NC(=O)[C@@H](NC(=O)[C@@H](NC(=O)[C@H](CO)NC(=O)[C@H](CC(C)C)NC(=O)[C@H](CCSC)NC(=O)[C@H](CC(N)=O)NC(=O)[C@H](Cc1ccccc1)NC(=O)[C@H](CCSC)NC(=O)CNC(=O)[C@H](CCSC)NC(=O)[C@H](CCSC)NC(=O)[C@H](CCSC)NC(=O)CNC(=O)[C@@H]1CCCN1C(=O)[C@H](CO)NC(=O)[C@@H](N)CCCCNC(=O)CCC(F)(F)C(F)(F)C(F)(F)C(F)(F)C(F)(F)C(F)(F)C(F)(F)C(F)(F)F)[C@@H](C)O)C(C)C)C(C)C)C(=O)N[C@@H](CC(C)C)C(=O)N[C@@H](CC(N)=O)C(=O)N[C@@H](CC(C)C)C(=O)NCC(=O)N[C@@H](CCC(N)=O)C(=O)N[C@@H](CCCCN)C(=O)N[C@@H](CCCCN)C(=O)N[C@@H](Cc1ccc(O)cc1)C(=O)N[C@H](C(=O)N[C@@H](CCCCN)C(=O)N[C@H](C(=O)N[C@H](C(=O)N[C@@H](Cc1ccc(O)cc1)C(N)=O)[C@@H](C)O)[C@@H](C)O)[C@@H](C)O [FCP6] | 74.1 | – | – | – | – | – | – | – | 80 | Clear | partially soluble; also recorded: Clear/Particulates | Cloudy−/Particulates | 8.8 | physically unstable over time
CC[C@H](C)[C@H](NC(=O)[C@H](CO)NC(=O)[C@H](CC(C)C)NC(=O)[C@@H](NC(=O)[C@H](CC(N)=O)NC(=O)[C@H](CCCNC(=N)N)NC(=O)[C@H](Cc1ccccc1)NC(=O)[C@H](Cc1c[nH]c2ccccc12)NC(=O)[C@H](CCC(=O)O)NC(=O)[C@@H]1CCCN1C(=O)[C@H](CCC(N)=O)NC(=O)[C@H](CC(N)=O)NC(=O)[C@H](CCCCN)NC(=O)[C@@H](NC(=O)[C@@H](NC(=O)[C@H](Cc1ccc(O)cc1)NC(=O)[C@@H](N)CCCCNC(=O)CCC(F)(F)C(F)(F)C(F)(F)C(F)(F)C(F)(F)C(F)(F)C(F)(F)C(F)(F)F)[C@@H](C)CC)[C@@H](C)O)[C@@H](C)CC)C(=O)N[C@@H](C)C(=O)N1CCC[C@H]1C(=O)N[C@H](C(=O)N[C@@H](CCSC)C(=O)N[C@@H](Cc1ccccc1)C(=O)N[C@@H](CO)C(=O)N[C@@H](CC(N)=O)C(=O)N[C@@H](CCCCN)C(=O)N[C@@H](CCSC)C(=O)N[C@@H](C)C(=O)N[C@@H](CCCNC(=N)N)C(=O)N[C@@H](CC(C)C)C(=O)NCC(=O)N[C@@H](CCCCN)C(=O)NCC(=O)N[C@@H](Cc1ccc(O)cc1)C(=O)N[C@@H](CCSC)C(=O)N[C@@H](Cc1ccccc1)C(=O)N[C@@H](CCC(=O)O)C(N)=O)[C@@H](C)CC [FCP10] | – | – | – | – | – | – | – | – | – | – | partially soluble; also recorded: Clear/Particulates | Cloudy−/Particulates | 90.7 | –
CC[C@H](C)[C@H](NC(=O)[C@H](CCCNC(=N)N)NC(=O)[C@H](CCSC)NC(=O)CNC(=O)[C@H](CO)NC(=O)CNC(=O)[C@H](CCCNC(=N)N)NC(=O)[C@@H](NC(=O)[C@H](CC(N)=O)NC(=O)[C@@H](NC(=O)[C@@H](NC(=O)[C@H](CC(C)C)NC(=O)[C@H](CO)NC(=O)[C@H](CO)NC(=O)[C@H](Cc1ccccc1)NC(=O)[C@H](CCC(N)=O)NC(=O)[C@H](CCSC)NC(=O)[C@H](CCCNC(=N)N)NC(=O)[C@H](CO)NC(=O)[C@H](CCC(N)=O)NC(=O)[C@@H](N)CCCCNC(=O)CCC(F)(F)C(F)(F)C(F)(F)C(F)(F)C(F)(F)C(F)(F)C(F)(F)C(F)(F)F)[C@@H](C)O)C(C)C)C(C)C)C(=O)N[C@@H](CC(C)C)C(=O)N[C@H](C(=O)N[C@@H](CCCNC(=N)N)C(=O)NCC(=O)N[C@@H](CC(N)=O)C(=O)N[C@@H](CO)C(=O)N1CCC[C@H]1C(=O)N[C@H](C(=O)N[C@@H](Cc1ccccc1)C(=O)N[C@@H](CC(N)=O)C(=O)N[C@@H](Cc1ccc(O)cc1)C(=O)N[C@@H](CC(N)=O)C(=O)N[C@@H](CCCCN)C(N)=O)C(C)C)C(C)C [FCP11] | – | – | – | – | – | – | – | – | – | – | fully soluble; also recorded: Clear/No Particulates | fully soluble; also recorded: Clear/No Particulates | 49.4 | –
